{
  "source": "ChEMBL document CHEMBL4308823",
  "about": "“Small Molecule Mitochondrial Uncouplers and Their Therapeutic Potential” (J Med Chem, 2018)",
  "key": {"Mus musculus [1]": {"system": "Mus musculus", "experiment": "Antiobesity activity in high fat diet-induced obese C57BL/6 mouse assessed as reduction in body weight at 50 umol/kg/day for 16 days relative to control", "format": "functional", "set-up": "scale not given: the % may be the effect or the level left"}, "Mus musculus [2]": {"system": "Mus musculus", "experiment": "Antiobesity activity in high fat diet-induced obese C57BL/6 mouse assessed as reduction in fat mass at 50 umol/kg/day for 16 days relative to control", "format": "functional", "set-up": "scale not given: the % may be the effect or the level left"}, "[3]": {"experiment": "Toxicity in rat", "settings": "in vivo"}, "[4]": {"experiment": "Dissociation constant, pKa of compound"}, "[5]": {"experiment": "Mitochondrial uncoupling activity in Arabidopsis root cells assessed as inhibition of clathrin-mediated endocytosis by measuring reduction of FM4-64 uptake", "format": "functional, mitochondria, Arabidopsis thaliana, Mitochondria"}, "[6]": {"experiment": "Uncoupling activity in rat mitochondria assessed as increase in oxygen consumption by mitochondrial respiration assay", "format": "functional"}, "Mus musculus [7]": {"system": "Mus musculus", "experiment": "Anorectic activity in C57Bl/6J mouse assessed as reduction in body weight at 30 umol/kg for 6 consecutive days relative to control", "format": "functional", "set-up": "scale not given: the % may be the effect or the level left"}, "Mus musculus [8]": {"system": "Mus musculus", "experiment": "Anorectic activity in C57Bl/6J mouse assessed as reduction in fat mass at 30 umol/kg for 6 consecutive days relative to control", "format": "functional", "set-up": "scale not given: the % may be the effect or the level left"}, "HL-60": {"system": "HL-60", "experiment": "Cytotoxicity against human HL60 cells after 24 to 48 hrs by MTT assay", "format": "cell-based"}, "Mus musculus [9]": {"system": "Mus musculus", "experiment": "Antiobesity activity in high fat diet-induced obese C57BL/6J mouse assessed as reduction in body weight at 5 mg/kg, po administered via gavage treated 3 times per week for 6 weeks relative to control", "format": "functional", "set-up": "scale not given: the % may be the effect or the level left"}, "Mus musculus [10]": {"system": "Mus musculus", "experiment": "Antiobesity activity in high fat diet-induced obese C57BL/6J mouse assessed as reduction in body fat mass at 5 mg/kg, po administered via gavage treated 3 times per week for 6 weeks relative to control", "format": "functional", "set-up": "scale not given: the % may be the effect or the level left"}, "[11]": {"experiment": "Acute toxicity in C57BL/6J mouse administered via oral gavage", "settings": "in vivo"}, "C2C12": {"system": "C2C12", "experiment": "Cytotoxicity against mouse C2C12 cells after overnight incubation", "format": "cell-based"}, "[12]": {"experiment": "Toxicity in po dosed rat", "format": "organism-based", "settings": "in vivo"}, "Liver": {"system": "Liver", "experiment": "Mitochondrial uncoupling activity in mouse liver mitochondria assessed as effect on succinoxldase coupled phosphorylation", "format": "functional"}, "in vivo": {"experiment": "in vivo", "settings": "mouse"}, "[13]": {"experiment": "Toxicity in human assessed as weight loss"}, "[14]": {"experiment": "Toxicity in dog", "set-up": "species or system Canis lupus familiaris", "settings": "in vivo"}, "143B": {"system": "143B", "experiment": "Cytotoxicity against human 143B cells after 24 hrs by LDH release assay", "format": "cell-based"}, "Hepatocyte": {"system": "Hepatocyte", "experiment": "Cytotoxicity against Sprague-Dawley rat hepatocytes after 24 hrs by MTT assay", "format": "cell-based"}, "HCT-116": {"system": "HCT-116", "experiment": "Cytotoxicity against human HCT116 cells after 48 hrs by MTT assay", "format": "cell-based", "settings": "HCT-116, 48 h"}, "[15]": {"experiment": "Acute toxicity in po dosed mouse", "format": "organism-based", "settings": "in vivo"}},
  "data": [
    {"compound": "CCCCCCCCCCCC[P+](c1ccccc1)(c1ccccc1)c1ccccc1", "values": [
      {"measurement": "Activity", "setting": "Mus musculus [1]", "result": 12, "unit": "%"},
      {"measurement": "Activity", "setting": "Mus musculus [2]", "result": 24, "unit": "%"}
    ]},
    {"compound": "NCCO.O=C(Nc1ccc([N+](=O)[O-])cc1Cl)c1cc(Cl)ccc1O", "values": [
      {"measurement": "LD50", "setting": "[3]", "result": 500, "unit": "mg/kg"}
    ]},
    {"compound": "CC(C)(C)c1cc(Cl)cc(C(=O)Nc2ccc([N+](=O)[O-])cc2Cl)c1O", "values": [
      {"measurement": "pKa", "setting": "[4]", "result": 5.8}
    ]},
    {"compound": "O=[N+]([O-])c1ccc(NS(=O)(=O)c2ccc(Br)s2)cc1", "values": [
      {"measurement": "IC50", "setting": "[5]", "result": 5000, "unit": "nM"}
    ]},
    {"compound": "CCCCOC(=O)c1ccccc1-c1c2cc(C)/c(=N\\CC)cc-2oc2cc(NCC)c(C)cc12", "values": [
      {"measurement": "EC50", "setting": "[6]", "result": 1000, "unit": "nM"},
      {"measurement": "pKa", "setting": "[4]", "result": 7.3},
      {"measurement": "Activity", "setting": "Mus musculus [7]", "result": 19, "unit": "%"},
      {"measurement": "Activity", "setting": "Mus musculus [8]", "result": 20, "unit": "%"}
    ]},
    {"compound": "O=C(Nc1cc(Cl)cc(Cl)c1)Nc1cc(Cl)cc(Cl)c1", "values": [
      {"measurement": "Activity", "setting": "HL-60", "result": "> 25", "unit": "µM"},
      {"measurement": "Activity", "setting": "Mus musculus [9]", "result": 16, "unit": "%"},
      {"measurement": "Activity", "setting": "Mus musculus [10]", "result": 35, "unit": "%"}
    ]},
    {"compound": "CCOC(=O)C1=C(C)N=c2s/c(=C/c3cc(Br)c(O)c(Br)c3)c(=O)n2C1c1ccc(Cl)cc1", "note": "(configuration not stated)", "values": [
      {"measurement": "LD50", "setting": "[11]", "result": 12.7, "unit": "mg/kg"}
    ]},
    {"compound": "O=[N+]([O-])c1ccc(OCc2ccc(OCCCC[P+](c3ccccc3)(c3ccccc3)c3ccccc3)cc2[N+](=O)[O-])c([N+](=O)[O-])c1", "values": [
      {"measurement": "Activity", "setting": "C2C12", "result": "> 5", "unit": "µM"}
    ]},
    {"compound": "FC(F)(F)c1nc2c(Cl)c(Cl)c(Cl)c(Cl)c2[nH]1", "values": [
      {"measurement": "LD50", "setting": "[12]", "result": 1.6, "unit": "mg/kg"},
      {"measurement": "pKa", "setting": "[4]", "result": "5.04 to 5.6"}
    ]},
    {"compound": "O=[N+]([O-])c1cc(CCC[P+](c2ccccc2)(c2ccccc2)c2ccccc2)cc([N+](=O)[O-])c1O", "values": [
      {"measurement": "pKa", "setting": "[4]", "result": 4.48}
    ]},
    {"compound": "N#CC(C#N)=NNc1ccc(OC(F)(F)F)cc1", "values": [
      {"measurement": "pKa", "setting": "[4]", "result": 6.2},
      {"measurement": "EC50", "setting": "Liver", "result": 40, "unit": "nM"},
      {"measurement": "LD50", "setting": "in vivo", "result": 8, "unit": "mg/kg"}
    ]},
    {"compound": "O=[N+]([O-])c1ccc(O)c([N+](=O)[O-])c1", "note": "[2,4-DINITROPHENOL]", "values": [
      {"measurement": "LD", "setting": "[13]", "result": "0.8 to 3", "unit": "g"},
      {"measurement": "LD50", "setting": "[12]", "result": 30, "unit": "mg/kg"},
      {"measurement": "LD50", "setting": "[14]", "result": 30, "unit": "mg/kg"},
      {"measurement": "pKa", "setting": "[4]", "result": 4.1}
    ]},
    {"compound": "CCCCN1CCCCC1C(=O)Nc1c(C)cccc1C", "note": "(configuration not stated) [BUPIVACAINE]", "values": [
      {"measurement": "LD50", "setting": "[3]", "result": "4.25 to 12.7", "unit": "mg/kg"},
      {"measurement": "pKa", "setting": "[4]", "result": 8.1}
    ]},
    {"compound": "N#CC(C#N)=NNc1cccc(Cl)c1", "note": "[CARBONYL CYANIDE M-CHLOROPHENYLHYDRAZONE]", "values": [
      {"measurement": "EC50", "setting": "Liver", "result": 100, "unit": "nM"}
    ]},
    {"compound": "COC1=C(OC)C(=O)C(CCCCCCCCCC[P+](c2ccccc2)(c2ccccc2)c2ccccc2)=C(C)C1=O", "note": "[MITOQUINONE CATION]", "values": [
      {"measurement": "Activity", "setting": "143B", "result": "> 10", "unit": "µM"}
    ]},
    {"compound": "CC(C)(C)c1cc(C=C(C#N)C#N)cc(C(C)(C)C)c1O", "note": "[TYRPHOSTIN A9]", "values": [
      {"measurement": "pKa", "setting": "[4]", "result": 6.7},
      {"measurement": "IC50", "setting": "Hepatocyte", "result": "> 970", "unit": "nM"},
      {"measurement": "IC50", "setting": "HCT-116", "result": "> 200", "unit": "nM"},
      {"measurement": "LD50", "setting": "[15]", "result": 29, "unit": "mg/kg"}
    ]}
  ]
}
